The subject of data set [1] is SUDHL10. As to the kind of experiment: Induction of cytotoxicity (CellTiter-Glo, 5 h), SUDHL10. The conditions noted are these: read-out: Cytotox SUDHL10 [M] (median); SUDHL10 cells, cytotoxicity induction, CellTiter-Glo, 5 h incubation, median. Background: ATP-based viability assays read luminescence as a measure of living cells.
The next data set has as its system MV-4-11. In words: Anti-proliferative effect (CellTiter-Glo, 72 h), MV-4-11. It counts as cell-based. Conditions: MV-4-11 cells, median, read-out: IC50 antiproliferation assay MV-4-11 [M] (median). In short, it runs like this: (§1)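 Endpoint: CellTiter-Glo luminescence, 10 min after reagent addition. Treatment ran 72 h at 37 °C, humidified. Growth was referenced to a separately plated day 0 plate.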

The test system of another data set is A2780. As to the kind of experiment: Anti-proliferative effect (CellTiter-Glo, 72 h), A2780. Conditions: A2780 cells, median, read-out: IC50 antiproliferation assay A2780 [M] (median). In kind it is cell-based. In short, it runs like this:
as §1

The test system of data set [2] is SUDHL5. In words: Anti-proliferative effect (CellTiter-Glo, 72 h), SUDHL5. It counts as cell-based. Conditions: SUDHL5 cells, antiproliferation, 72 h incubation, median, read-out: Antiproli SUDHL5 [M] (median). In short, it runs like this:
as §1

Data set [3] concerns SUDHL5. In words: Induction of caspase-3/7 activity (Caspase-Glo 3/7), SUDHL5. In kind it is cell-based. The conditions noted are these: caspase-3/7 induction, SUDHL5 cells, 3 h treatment; median. Put shortly: (§2)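 A 3 h, 37 °C compound incubation precedes the Caspase-Glo 3/7 read. After subtracting medium-only signal, EC50s are fitted against the reference compound's maximal caspase induction.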

Another data set deals with MCL-1 (Homo sapiens, UniProt Q07820). As to the kind of experiment: Protein-protein interaction assay MCL-1/Noxa BH3 peptide (MCL-1 assay), TR-FRET. It counts as binding. The conditions noted are these: MBP-MCL-1 / Noxa BH3-derived peptide, median. Put shortly:
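Steady-state competition, MCL-1/Noxa BH3, TR-FRET readout; 1 nM MBP-MCL-1, 11-point dose series 0.1 nM–20 μM; overnight 4 °C equilibration; 4-parameter IC50.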
On the technique in general: Time-resolved FRET reads energy transfer from a long-lived donor to a nearby acceptor.

The test system of data set [4] is SUDHL10. In words: Induction of caspase-3/7 activity (Caspase-Glo 3/7), SUDHL10. Conditions: caspase-3/7 induction, SUDHL10 cells, 3 h treatment, median. It counts as cell-based. Put shortly:
as §2

Data set [5] concerns SUDHL5. As to the kind of experiment: Induction of cytotoxicity (CellTiter-Glo, 5 h), SUDHL5. The conditions noted are these: read-out: Cytotox SUDHL5 [M] (median); SUDHL5 cells, cytotoxicity induction, CellTiter-Glo, 5 h incubation, median.

Values joined by “and” are separate entries in the source; they are usually repeats but may differ in a detail not shown here. Equal entries are not always repeated. Where two headings read alike, the source gives them in different places.

Chain of MCL-1 (Q07820 whole entry): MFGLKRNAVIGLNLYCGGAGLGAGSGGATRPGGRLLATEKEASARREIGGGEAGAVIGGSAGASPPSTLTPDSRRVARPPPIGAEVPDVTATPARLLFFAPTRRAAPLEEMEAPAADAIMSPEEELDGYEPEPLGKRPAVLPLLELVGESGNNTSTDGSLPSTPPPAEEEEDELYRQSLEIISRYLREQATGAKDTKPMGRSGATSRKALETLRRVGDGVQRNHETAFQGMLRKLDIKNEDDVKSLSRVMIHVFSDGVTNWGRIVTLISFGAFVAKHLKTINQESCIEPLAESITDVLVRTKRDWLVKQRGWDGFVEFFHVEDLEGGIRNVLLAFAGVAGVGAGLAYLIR

The term EC50 denotes the midpoint of the concentration-response curve. A lower EC50 goes with an effect from little substance. In the case of `Cc1ccc2c(C(C)CCOc3cccc4ccccc34)c(C(=O)O)n3c2c1-c1c(C)nn(C)c1COCCCC3` (single isomer, unassigned) [Example 260, 1,3,4-trimethyl-7-[4-(naphthalen-1-yloxy)butan-2-yl]-1,10,11,12,13,15-hexahydropyrazolo[4′3′:9,10][1,6]oxazacycloundecino[8,7,6-hi]indole-8-carboxylic Acid], the IC50 in the data set with SUDHL10 [1] was 1.18e-05 M; in the data set on MV-4-11 (Homo sapiens, MV4-11, 72 h), 4.35e-06 M; with A2780 it was 2.2e-05 M; in the data set on SUDHL5 [2] it was 3.61e-06 M; against MCL-1, 0.00875 µM; in the data set with SUDHL5 [5] it was 6.3e-06 M. In addition, the EC50 stood at 10.2 µM in the data set on SUDHL5 [3] and 11.3 µM in the data set on SUDHL10 [4].
As for `CCc1nn(C)c2c1-c1c(C)ccc3c(CCCOc4cccc5cc(F)ccc45)c(C(=O)O)n(c13)CCCCOC2` (single isomer, unassigned) [Example 268, (−)-3-ethyl-7-{3-[(6-fluoronaphthalen-1-yl)oxy]propyl}-1,4-dimethyl-1,10,11,12,13,15-hexahydropyrazolo[4′,3′:9,10][1,6]oxazacycloundecino[8,7,6-hi]indole-8-carboxylic Acid], the IC50 in the data set with SUDHL10 [1] was > 3.3e-05 M; in the data set on MV-4-11, 7.46e-06 M; with A2780 it was 2.29e-05 M; in the data set on SUDHL5 [2], 7.41e-06 M; against MCL-1, 0.0407 µM; in the data set on SUDHL5 [5], > 3.3e-05 M. The 50% effective concentration (EC50) with SUDHL5 [3] and in the data set on SUDHL10 [4] was > 33 µM in each case.
Turning to `CCc1nn(C)c2c1-c1c(C)ccc3c(C(C)CCOc4cccc5ccccc45)c(C(=O)O)n(c13)CCCCOC2` (single isomer, unassigned) [Example 272, 3-ethyl-1,4-dimethyl-7-[4-(naphthalen-1-yloxy)butan-2-yl]-1,10,11,12,13,15-hexahydropyrazolo[4′,3′:9,10][1,6]oxazacycloundecino[8,7,6-hi]indole-8-carboxylic Acid], the IC50 in the data set with SUDHL10 [1] was 2.5e-05 M; in the data set with MV-4-11 (Homo sapiens, MV4-11, 72 h), 4.89e-06 M; in the data set with A2780 it was 7.15e-06 M; with SUDHL5 [2] (Homo sapiens, SU-DHL-5, 72 h), 2.76e-06 M; against MCL-1, 0.983 µM; with SUDHL5 [5], > 3.3e-05 M. For the same compound, the EC50 in the data set with SUDHL5 [3] was > 33 µM; in the data set on SUDHL10 [4] (Homo sapiens, SU-DHL10, 3 h) it was 23.8 µM.
With `CCc1nn(C)c2c1-c1c(C)ccc3c(C(C)CCOc4cccc5ccccc45)c(C(=O)O)n(c13)CCCCOC2` (single isomer, unassigned) [Example 273, 3-ethyl-1,4-dimethyl-7-[4-(naphthalen-1-yloxy)butan-2-yl]-1,10,11,12,13,15-hexahydropyrazolo[4′,3′:9,10][1,6]oxazacycloundecino[8,7,6-hi]indole-8-carboxylic Acid], the IC50 in the data set with SUDHL10 [1] turned out to be 1.62e-05 M; with MV-4-11, 4.53e-06 M; in the data set with A2780, 4.18e-06 M; with SUDHL5 [2], 3.74e-06 M; against MCL-1, 0.00589 µM; with SUDHL5 [5], 4.58e-06 M. Further, the values for the EC50 in the data set with SUDHL5 [3] and with SUDHL10 [4] were 5.37 µM and 15.9 µM, respectively.
For the compound `CCc1nn(C)c2c1-c1c(C)ccc3c(C(C)CCOc4cccc5ccccc45)c(C(=O)O)n(c13)CCCCOC2` (single isomer, unassigned) [Example 274, 3-ethyl-1,4-dimethyl-7-[4-(naphthalen-1-yloxy)butan-2-yl]-1,10,11,12,13,15-hexahydropyrazolo[4′,3′:9,10][1,6]oxazacycloundecino[8,7,6-hi]indole-8-carboxylic Acid], the IC50 with SUDHL10 [1] is > 3.3e-05 M; in the data set with MV-4-11 it was 8.02e-06 M; in the data set on A2780 it was 1.17e-05 M; in the data set with SUDHL5 [2] it was 3.93e-06 M; at MCL-1, 1.56 µM; with SUDHL5 [5], > 3.3e-05 M. The 50% effective concentration (EC50) with SUDHL5 [3] is > 33 µM; in the data set on SUDHL10 [4], 31.7 µM.
`CCc1nn(C)c2c1-c1c(C)ccc3c(C(C)CCOc4cccc5ccccc45)c(C(=O)O)n(c13)CCCCOC2` (single isomer, unassigned) [Example 275, 3-ethyl-1,4-dimethyl-7-[4-(naphthalen-1-yloxy)butan-2-yl]-1,10,11,12,13,15-hexahydropyrazolo[4′,3′:9,10][1,6]oxazacycloundecino[8,7,6-hi]indole-8-carboxylic Acid]: the IC50 in the data set on SUDHL10 [1] is 2.83e-05 M; in the data set with MV-4-11, 4.52e-06 M; with A2780, 7.02e-06 M; in the data set on SUDHL5 [2], 3.33e-06 M; against MCL-1 it was 3.97 µM; in the data set with SUDHL5 [5] it was > 3.3e-05 M. The EC50 with SUDHL5 [3] was > 33 µM; in the data set with SUDHL10 [4] it was 21.6 µM.
Regarding `Cc1ccc2c(C(C)CCOc3cccc4cc(F)ccc34)c(C(=O)O)n3c2c1-c1c(nn(C)c1C)COCCCC3` (single isomer, unassigned) [Example 277, 7-{4-[(6-fluoronaphthalen-1-yl)oxy]butan-2-yl}-2,3,4-trimethyl-2,10,11,12,13,15-hexahydropyrazolo[4′3′:9,10][1,6]oxazacycloundecino[8,7,6-hi]indole-8-carboxylic Acid], the IC50 with SUDHL10 [1] worked out at 2.28e-06 M; in the data set on MV-4-11 (Homo sapiens, MV4-11, 72 h), 8.78e-06 M; in the data set with A2780 (Homo sapiens, A2780, 72 h), 1.5e-05 M; in the data set with SUDHL5 [2], 2.05e-06 M; against MCL-1, 0.0013 µM; in the data set on SUDHL5 [5] it was 2.1e-06 M. Moreover, the EC50 was 1.4 µM in the data set on SUDHL5 [3] and 1.8 µM with SUDHL10 [4].
Regarding `Cc1ccc2c(C(C)CCOc3cccc4cc(F)ccc34)c(C(=O)O)n3c2c1-c1c(nn(C)c1C)COCCCC3` (single isomer, unassigned) [Example 278, 7-{4-[(6-fluoronaphthalen-1-yl)oxy]butan-2-yl}2,3,4-trimethyl-2,10,11,12,13,15-hexahydropyrazolo[4′,3′:9,10][1,6]oxazacycloundecino[8,7,6-hi]indole-8-carboxylic Acid], the IC50 with SUDHL10 [1] is > 3.3e-05 M; in the data set with MV-4-11, 1.49e-05 M; in the data set on A2780, 1.26e-05 M; in the data set with SUDHL5 [2], 1.19e-05 M; at MCL-1 it was 0.142 µM; in the data set on SUDHL5 [5], 2.48e-05 M. Besides, the EC50 in the data set with SUDHL5 [3] was 26.3 µM; with SUDHL10 [4], > 33 µM.
Turning to `Cc1ccc2c(C(C)CCOc3cccc4cc(F)ccc34)c(C(=O)O)n3c2c1-c1c(nn(C)c1C)COCCCC3` (single isomer, unassigned) [Example 279, 7-{4-[(6-fluoronaphthalen-1-yl)oxy]butan-2-yl}-2,3,4-trimethyl-2,10,11,12,13,15-hexahydropyrazolo[4′,3′:9,10][1,6]oxazacycloundecino[8,7,6-hi]indole-8-carboxylic Acid], the IC50 in the data set on SUDHL10 [1] turned out to be 2.94e-05 M; with MV-4-11, 1.57e-05 M; with A2780 it was 7.5e-06 M; with SUDHL5 [2] it was 7.56e-06 M; on MCL-1, 1.6 µM; in the data set with SUDHL5 [5], 2.05e-05 M. The EC50 in the data set on SUDHL5 [3] is 25.5 µM; with SUDHL10 [4], 26.6 µM.
In the case of `Cc1ccc2c(C(C)CCOc3cccc4cc(F)ccc34)c(C(=O)O)n3c2c1-c1c(nn(C)c1C)COCCCC3` (single isomer, unassigned) [Example 280, 7-{4-[(6-fluoronaphthalen-1-yl)oxy]butan-2-yl}-2,3,4-trimethyl-2,10,11,12,13,15-hexahydropyrazolo[4′3′:9,10][1,6]oxazacycloundecino[8,7,6-hi]indole-carboxylic Acid], the IC50 was 3.07e-05 M with SUDHL10 [1]; 1.11e-05 M in the data set with MV-4-11; 8.02e-06 M in the data set on A2780; 1.18e-05 M in the data set with SUDHL5 [2]; 0.194 µM on MCL-1; > 3.3e-05 M in the data set with SUDHL5 [5]. In addition, the EC50 was > 33 µM with SUDHL5 [3] and 32.4 µM in the data set with SUDHL10 [4].
With `CCc1c2c(nn1C)COCCCCn1c(C(=O)O)c(CCCOc3cccc4cc(F)ccc34)c3cccc-2c31` (single isomer, unassigned) [Example 283], the IC50 came out at 3.05e-05 M in the data set on SUDHL10 [1]; 1.46e-05 M in the data set with MV-4-11; 1.5e-05 M in the data set on A2780; 8.33e-06 M in the data set on SUDHL5 [2]; 0.0444 µM against MCL-1; 2.17e-05 M in the data set with SUDHL5 [5]. Further, the 50% effective concentration (EC50) in the data set with SUDHL5 [3] was 30.7 µM and > 33 µM; in the data set on SUDHL10 [4], > 33 µM.

For the origin of these results see patent publication US10981932B2, “Macrocyclic indole derivatives” (Bayer Aktiengesellschaft, priority 2016, dated 2021).
